Test results published in paper PMC12090182, “Repurposing of the RIPK1-Selective Benzo[1,4]oxazepin-4-one Scaffold for the Development of a Type III LIMK1/2 Inhibitor” (ACS Chemical Biology, 2025).

Tests used:
Experiment in all cases: biochemical
Format in all cases: binding
[1] = target: 468 kinases including some pathogenic mutants (Homo sapiens, UniProt P51957); conditions: NEK4 (Entrez NEK4), 1000 nM; read-out: Percent Control
[2] = target: 468 kinases including some pathogenic mutants (Homo sapiens, UniProt P52333); conditions: JAK3(JH1domain-catalytic) (Entrez JAK3), 100 nM; read-out: Percent Control
[3] = target: 468 kinases including some pathogenic mutants (Homo sapiens, UniProt P10721, D816V); conditions: read-out: Percent Control
[4] = target: 468 kinases including some pathogenic mutants (Homo sapiens, UniProt P80192); conditions: MLK1 (Entrez MAP3K9), 1000 nM; read-out: Percent Control
[5] = target: 468 kinases including some pathogenic mutants (Homo sapiens, UniProt Q96L34); conditions: MARK4 (Entrez MARK4), 1000 nM; read-out: Percent Control
[6] = target: 468 kinases including some pathogenic mutants (Homo sapiens, UniProt O94804); conditions: LOK (Entrez STK10), 100 nM; read-out: Percent Control
[7] = target: 468 kinases including some pathogenic mutants (Homo sapiens, UniProt P42336, E545K); conditions: read-out: Percent Control
[8] = target: 468 kinases including some pathogenic mutants (Homo sapiens, UniProt Q13554); conditions: CAMK2B (Entrez CAMK2B), 100 nM; read-out: Percent Control
[9] = target: 468 kinases including some pathogenic mutants (Homo sapiens, UniProt Q07002); conditions: read-out: Percent Control
[10] = target: 468 kinases including some pathogenic mutants (Homo sapiens, UniProt P54756); conditions: EPHA5 (Entrez EPHA5), 100 nM; read-out: Percent Control
[11] = target: 468 kinases including some pathogenic mutants (Homo sapiens, UniProt P42679); conditions: CTK (Entrez MATK), 100 nM; read-out: Percent Control
[12] = target: 468 kinases including some pathogenic mutants (Homo sapiens, UniProt P42336, I800L); conditions: read-out: Percent Control
[13] = target: 468 kinases including some pathogenic mutants (Homo sapiens, UniProt P27448); conditions: MARK3 (Entrez MARK3), 100 nM; read-out: Percent Control
[14] = target: 468 kinases including some pathogenic mutants (Homo sapiens, UniProt Q8TBX8); conditions: PIP5K2C (Entrez PIP4K2C), 100 nM; read-out: Percent Control
[15] = target: 468 kinases including some pathogenic mutants (Homo sapiens, UniProt Q9H0K1); conditions: SIK2 (Entrez SIK2), 1000 nM; read-out: Percent Control
[16] = target: 468 kinases including some pathogenic mutants (Homo sapiens, UniProt Q13976); conditions: PRKG1 (Entrez PRKG1), 100 nM; read-out: Percent Control
[17] = target: 468 kinases including some pathogenic mutants (Homo sapiens, UniProt Q8IW41); conditions: MAPKAPK5 (Entrez MAPKAPK5), 1000 nM; read-out: Percent Control
[18] = target: 468 kinases including some pathogenic mutants (Homo sapiens, UniProt P12931); conditions: SRC (Entrez SRC), 1000 nM; read-out: Percent Control
[19] = target: 468 kinases including some pathogenic mutants (Homo sapiens, UniProt O43283); conditions: LZK (Entrez MAP3K13), 100 nM; read-out: Percent Control
[20] = target: 468 kinases including some pathogenic mutants (Homo sapiens, UniProt Q00536); conditions: PCTK1 (Entrez CDK16), 1000 nM; read-out: Percent Control
[21] = target: 468 kinases including some pathogenic mutants (Homo sapiens, UniProt Q9UPZ9); conditions: ICK (Entrez ICK), 100 nM; read-out: Percent Control
[22] = target: 468 kinases including some pathogenic mutants (Homo sapiens, UniProt Q9UEW8); conditions: STK39 (Entrez STK39), 100 nM; read-out: Percent Control
[23] = target: 468 kinases including some pathogenic mutants (Homo sapiens, UniProt P17948); conditions: FLT1 (Entrez FLT1), 100 nM; read-out: Percent Control
[24] = target: 468 kinases including some pathogenic mutants (Homo sapiens, UniProt P42680); conditions: TEC (Entrez TEC), 1000 nM; read-out: Percent Control
[25] = target: 468 kinases including some pathogenic mutants (Homo sapiens, UniProt P00533, DEL746-750); conditions: read-out: Percent Control
[26] = target: 468 kinases including some pathogenic mutants (Homo sapiens, UniProt Q9HBY8); conditions: SGK2 (Entrez SGK2), 100 nM; read-out: Percent Control
[27] = target: 468 kinases including some pathogenic mutants (Homo sapiens, UniProt Q9UM73, C1156Y); conditions: read-out: Percent Control
[28] = target: 468 kinases including some pathogenic mutants (Homo sapiens, UniProt Q16513); conditions: PKN2 (Entrez PKN2), 1000 nM; read-out: Percent Control
[29] = target: 468 kinases including some pathogenic mutants (Homo sapiens, UniProt O15264); conditions: p38-delta (Entrez MAPK13), 1000 nM; read-out: Percent Control

Sequence of 468 kinases including some pathogenic mutants (Homo sapiens, UniProt P17948) (P17948 27-1338, change not shown): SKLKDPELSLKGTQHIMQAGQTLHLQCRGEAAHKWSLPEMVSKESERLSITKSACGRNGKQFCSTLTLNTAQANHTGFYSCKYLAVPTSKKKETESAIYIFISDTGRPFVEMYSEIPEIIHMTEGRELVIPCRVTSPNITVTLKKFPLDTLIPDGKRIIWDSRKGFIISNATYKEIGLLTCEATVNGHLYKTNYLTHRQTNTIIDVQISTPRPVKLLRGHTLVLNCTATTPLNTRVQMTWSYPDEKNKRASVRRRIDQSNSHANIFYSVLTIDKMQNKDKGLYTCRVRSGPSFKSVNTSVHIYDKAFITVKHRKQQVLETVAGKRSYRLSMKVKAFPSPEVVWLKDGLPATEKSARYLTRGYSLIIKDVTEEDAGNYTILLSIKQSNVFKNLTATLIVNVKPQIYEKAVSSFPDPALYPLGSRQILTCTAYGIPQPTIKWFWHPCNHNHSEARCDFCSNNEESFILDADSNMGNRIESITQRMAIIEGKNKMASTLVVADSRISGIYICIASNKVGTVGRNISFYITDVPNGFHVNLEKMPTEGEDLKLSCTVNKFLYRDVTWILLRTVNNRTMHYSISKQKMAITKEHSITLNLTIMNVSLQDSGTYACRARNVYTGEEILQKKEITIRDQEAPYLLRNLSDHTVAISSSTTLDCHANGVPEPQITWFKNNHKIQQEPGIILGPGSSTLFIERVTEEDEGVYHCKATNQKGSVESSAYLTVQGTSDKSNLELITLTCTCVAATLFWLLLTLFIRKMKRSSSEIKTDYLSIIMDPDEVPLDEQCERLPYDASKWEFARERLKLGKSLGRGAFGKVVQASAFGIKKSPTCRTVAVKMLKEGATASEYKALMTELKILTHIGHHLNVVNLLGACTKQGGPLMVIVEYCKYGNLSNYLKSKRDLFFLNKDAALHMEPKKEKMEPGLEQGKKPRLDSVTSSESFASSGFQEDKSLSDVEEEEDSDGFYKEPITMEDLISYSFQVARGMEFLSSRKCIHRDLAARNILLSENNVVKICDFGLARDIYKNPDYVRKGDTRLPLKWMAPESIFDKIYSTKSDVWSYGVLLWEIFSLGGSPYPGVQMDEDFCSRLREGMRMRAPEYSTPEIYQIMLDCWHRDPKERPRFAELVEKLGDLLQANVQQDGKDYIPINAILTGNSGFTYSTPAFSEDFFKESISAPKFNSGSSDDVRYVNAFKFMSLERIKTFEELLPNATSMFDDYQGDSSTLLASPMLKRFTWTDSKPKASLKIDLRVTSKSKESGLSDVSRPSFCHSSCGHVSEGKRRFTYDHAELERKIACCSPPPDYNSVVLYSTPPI
Sequence of 468 kinases including some pathogenic mutants (Homo sapiens, UniProt P52333) (P52333 whole entry, stated change not applied): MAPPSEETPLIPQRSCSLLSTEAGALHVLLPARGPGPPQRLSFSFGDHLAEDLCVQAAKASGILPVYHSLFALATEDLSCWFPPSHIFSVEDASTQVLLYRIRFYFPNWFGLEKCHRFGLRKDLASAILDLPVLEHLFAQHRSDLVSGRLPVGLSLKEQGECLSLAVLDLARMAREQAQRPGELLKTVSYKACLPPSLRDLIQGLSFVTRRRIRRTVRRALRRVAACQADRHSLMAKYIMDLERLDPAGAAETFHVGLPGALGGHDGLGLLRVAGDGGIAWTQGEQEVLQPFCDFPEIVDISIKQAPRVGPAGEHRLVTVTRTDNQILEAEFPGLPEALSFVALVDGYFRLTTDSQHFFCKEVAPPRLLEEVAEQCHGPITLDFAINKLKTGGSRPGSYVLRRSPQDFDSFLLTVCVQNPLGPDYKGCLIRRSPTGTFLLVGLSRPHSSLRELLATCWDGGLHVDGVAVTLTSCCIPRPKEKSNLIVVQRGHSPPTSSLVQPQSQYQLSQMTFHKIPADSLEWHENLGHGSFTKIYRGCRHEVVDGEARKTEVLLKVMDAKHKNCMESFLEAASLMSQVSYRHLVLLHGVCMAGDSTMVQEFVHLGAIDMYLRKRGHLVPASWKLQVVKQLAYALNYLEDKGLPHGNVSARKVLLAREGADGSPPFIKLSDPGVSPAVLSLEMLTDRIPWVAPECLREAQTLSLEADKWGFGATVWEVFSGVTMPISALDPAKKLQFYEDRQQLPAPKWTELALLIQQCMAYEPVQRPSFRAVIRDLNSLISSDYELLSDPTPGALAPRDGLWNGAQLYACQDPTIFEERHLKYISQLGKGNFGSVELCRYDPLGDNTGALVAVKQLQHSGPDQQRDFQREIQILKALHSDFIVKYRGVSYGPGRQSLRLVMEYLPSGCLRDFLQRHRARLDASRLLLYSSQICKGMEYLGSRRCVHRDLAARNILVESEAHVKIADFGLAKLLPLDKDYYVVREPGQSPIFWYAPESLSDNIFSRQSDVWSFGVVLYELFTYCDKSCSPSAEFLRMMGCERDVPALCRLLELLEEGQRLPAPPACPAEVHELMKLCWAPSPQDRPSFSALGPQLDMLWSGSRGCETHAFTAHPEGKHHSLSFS
Sequence of 468 kinases including some pathogenic mutants (Homo sapiens, UniProt Q16513) (Q16513 whole entry, stated change not applied): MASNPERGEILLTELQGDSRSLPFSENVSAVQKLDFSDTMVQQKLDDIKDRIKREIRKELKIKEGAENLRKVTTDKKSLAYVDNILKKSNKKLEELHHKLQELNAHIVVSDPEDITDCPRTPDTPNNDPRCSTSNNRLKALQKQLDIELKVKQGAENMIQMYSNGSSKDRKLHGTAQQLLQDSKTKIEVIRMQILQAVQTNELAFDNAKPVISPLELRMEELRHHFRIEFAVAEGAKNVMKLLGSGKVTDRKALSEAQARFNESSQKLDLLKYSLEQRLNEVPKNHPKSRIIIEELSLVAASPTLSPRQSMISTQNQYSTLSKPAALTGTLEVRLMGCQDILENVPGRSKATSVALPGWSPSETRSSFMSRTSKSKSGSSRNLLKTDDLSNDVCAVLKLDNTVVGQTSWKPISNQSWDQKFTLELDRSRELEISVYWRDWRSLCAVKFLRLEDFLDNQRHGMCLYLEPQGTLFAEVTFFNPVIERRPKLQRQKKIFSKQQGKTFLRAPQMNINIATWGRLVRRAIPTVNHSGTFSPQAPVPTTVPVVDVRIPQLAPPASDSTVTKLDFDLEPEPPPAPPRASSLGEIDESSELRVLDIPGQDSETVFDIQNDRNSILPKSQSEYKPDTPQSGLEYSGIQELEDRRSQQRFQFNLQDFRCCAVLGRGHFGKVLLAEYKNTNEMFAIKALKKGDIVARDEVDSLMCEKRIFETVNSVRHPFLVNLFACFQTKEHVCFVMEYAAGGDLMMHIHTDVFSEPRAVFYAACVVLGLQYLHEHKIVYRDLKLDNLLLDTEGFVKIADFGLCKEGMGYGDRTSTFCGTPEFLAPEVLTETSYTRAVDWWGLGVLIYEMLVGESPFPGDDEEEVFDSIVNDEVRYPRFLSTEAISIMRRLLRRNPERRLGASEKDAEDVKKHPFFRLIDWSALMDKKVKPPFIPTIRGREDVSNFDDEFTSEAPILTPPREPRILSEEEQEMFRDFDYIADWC
Sequence of 468 kinases including some pathogenic mutants (Homo sapiens, UniProt P00533, DEL746-750) (P00533 other isoform, or with tags, fused parts or gaps DEL746-750): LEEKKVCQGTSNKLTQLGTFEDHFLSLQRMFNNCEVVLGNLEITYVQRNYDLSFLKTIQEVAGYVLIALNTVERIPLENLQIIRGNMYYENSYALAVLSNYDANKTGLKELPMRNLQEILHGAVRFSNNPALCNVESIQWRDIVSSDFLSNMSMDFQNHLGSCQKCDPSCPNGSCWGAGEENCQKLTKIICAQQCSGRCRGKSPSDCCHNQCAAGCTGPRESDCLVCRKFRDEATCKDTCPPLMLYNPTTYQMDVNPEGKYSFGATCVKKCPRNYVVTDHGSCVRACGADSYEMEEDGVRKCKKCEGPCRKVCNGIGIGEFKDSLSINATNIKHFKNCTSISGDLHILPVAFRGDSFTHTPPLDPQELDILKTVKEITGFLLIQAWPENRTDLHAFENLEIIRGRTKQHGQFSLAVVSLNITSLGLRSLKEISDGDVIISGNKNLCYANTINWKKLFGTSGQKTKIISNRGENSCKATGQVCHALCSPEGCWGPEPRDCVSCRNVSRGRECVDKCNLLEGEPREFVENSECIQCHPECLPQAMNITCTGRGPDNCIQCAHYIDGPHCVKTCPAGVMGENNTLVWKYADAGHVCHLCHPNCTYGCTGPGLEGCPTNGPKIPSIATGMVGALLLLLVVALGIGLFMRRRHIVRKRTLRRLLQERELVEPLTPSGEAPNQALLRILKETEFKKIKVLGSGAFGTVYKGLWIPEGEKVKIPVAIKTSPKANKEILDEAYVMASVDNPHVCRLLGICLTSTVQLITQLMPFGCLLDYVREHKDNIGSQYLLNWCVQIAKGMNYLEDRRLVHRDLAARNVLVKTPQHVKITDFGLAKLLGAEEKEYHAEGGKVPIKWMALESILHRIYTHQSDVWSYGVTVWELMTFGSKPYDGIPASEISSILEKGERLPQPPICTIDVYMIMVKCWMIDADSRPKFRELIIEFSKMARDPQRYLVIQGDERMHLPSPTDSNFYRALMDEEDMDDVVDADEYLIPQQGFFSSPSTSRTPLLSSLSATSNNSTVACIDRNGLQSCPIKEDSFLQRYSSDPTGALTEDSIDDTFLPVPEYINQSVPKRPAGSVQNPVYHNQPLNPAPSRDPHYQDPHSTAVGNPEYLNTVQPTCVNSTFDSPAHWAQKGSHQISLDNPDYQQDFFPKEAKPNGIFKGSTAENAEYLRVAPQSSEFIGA
Sequence of 468 kinases including some pathogenic mutants (Homo sapiens, UniProt P42679) (P42679 whole entry, stated change not applied): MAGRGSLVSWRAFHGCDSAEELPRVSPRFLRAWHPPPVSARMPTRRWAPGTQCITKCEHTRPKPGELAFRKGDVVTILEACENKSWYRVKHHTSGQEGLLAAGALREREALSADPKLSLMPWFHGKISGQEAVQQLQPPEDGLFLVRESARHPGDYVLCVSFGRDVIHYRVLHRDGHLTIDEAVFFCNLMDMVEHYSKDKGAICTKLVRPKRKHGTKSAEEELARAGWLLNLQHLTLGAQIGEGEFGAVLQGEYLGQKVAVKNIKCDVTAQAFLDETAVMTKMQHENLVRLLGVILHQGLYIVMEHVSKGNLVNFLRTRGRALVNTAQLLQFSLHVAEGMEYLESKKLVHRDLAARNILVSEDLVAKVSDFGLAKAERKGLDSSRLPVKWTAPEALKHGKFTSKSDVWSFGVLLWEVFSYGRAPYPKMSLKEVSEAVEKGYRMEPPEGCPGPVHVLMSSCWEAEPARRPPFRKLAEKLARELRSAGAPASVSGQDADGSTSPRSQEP

Structure (SMILES): CN1C(=O)[C@@H](N2CCc3c(nn(Cc4ccccc4)c3C(N)=O)C2=O)COc2cc(Cl)ccc21 [Compound 10, (S)-2-benzyl-6-(8-chloro-5-methyl-4-oxo-2,3,4,5-tetrahydrobenzo[b][1,4]oxazepin-3-yl)-7-oxo-4,5,6,7-tetrahydro-2H-pyrazolo[3,4-c]pyridine-3-carboxamide]
- remaining activity at 1 µM [1]: 100%
- remaining activity at 0.1 µM [2]: 100%
- remaining activity at 1 µM [3]: 100%
- remaining activity at 1 µM [4]: 100%
- remaining activity at 1 µM [5]: 100%
- remaining activity at 0.1 µM [6]: 57%
- remaining activity at 0.1 µM [7]: 75%
- remaining activity at 0.1 µM [8]: 67%
- remaining activity at 0.1 µM [9]: 100%
- remaining activity at 0.1 µM [10]: 74%
- remaining activity at 0.1 µM [11]: 100%
- remaining activity at 0.1 µM [12]: 71%
- remaining activity at 0.1 µM [13]: 100%
- remaining activity at 0.1 µM [14]: 91%
- remaining activity at 1 µM [15]: 100%
- remaining activity at 0.1 µM [16]: 78%
- remaining activity at 1 µM [17]: 100%
- remaining activity at 1 µM [18]: 100%
- remaining activity at 0.1 µM [19]: 100%
- remaining activity at 1 µM [20]: 100%
- remaining activity at 0.1 µM [21]: 100%
- remaining activity at 0.1 µM [22]: 67%
- remaining activity at 0.1 µM [23]: 78%
- remaining activity at 1 µM [24]: 100%
- remaining activity at 0.1 µM [25]: 78%
- remaining activity at 0.1 µM [26]: 75%
- remaining activity at 0.1 µM [27]: 93%
- remaining activity at 1 µM [28]: 100%
- remaining activity at 1 µM [29]: 100%
